Reference: US20140128385A1 (NOVARTIS AG, priority 2011, published 2014)
Structures can show the parent of a compound that is named as a salt.

Target: T1, BACE-2 (Homo sapiens, UniProt Q9Y5Z0)
T1 construct: Recombinant BACE-2 (extracellular domain, expressed in baculovirus and purified using standard methods); made in house
T1 sequence (Q9Y5Z0 63-473 limits assumed): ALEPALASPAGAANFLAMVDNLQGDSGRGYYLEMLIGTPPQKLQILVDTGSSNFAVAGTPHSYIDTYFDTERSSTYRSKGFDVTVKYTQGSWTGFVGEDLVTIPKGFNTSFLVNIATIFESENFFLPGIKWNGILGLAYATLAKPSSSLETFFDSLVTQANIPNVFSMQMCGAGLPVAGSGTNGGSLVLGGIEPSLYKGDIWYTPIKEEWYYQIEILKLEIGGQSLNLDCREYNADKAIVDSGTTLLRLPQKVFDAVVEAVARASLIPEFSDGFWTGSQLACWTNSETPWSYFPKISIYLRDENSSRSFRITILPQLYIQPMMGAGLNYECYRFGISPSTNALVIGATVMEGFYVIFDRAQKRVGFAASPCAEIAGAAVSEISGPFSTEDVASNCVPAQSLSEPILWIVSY
Assay: assay for inhibition of BACE-2
Assay type: biochemical

| SMILES | IC50 [nM] |
| --- | --- |
| Cc1cc(Br)cnc1C(=O)Nc1ccc(F)c(C2(C(F)F)CNCC(N)=N2)c1 (stereo not drawn) [Example 210, 5-Bromo-3-methyl-pyridine-2-carboxylic acid [3-(6-amino-2-difluoromethyl-2,3,4,5-tetrahydro-pyrazin-2-yl)-4-fluoro-phenyl]-amide] | 23 |
| CC(=O)N1CC(N)=NC(c2cc(NC(=O)c3ncc(OC(F)F)cc3C)ccc2F)(C(F)F)C1 (stereo not drawn) [Example 211, 5-Difluoromethoxy-3-methyl-pyridine-2-carboxylic acid [3-(4-acetyl-6-amino-2-difluoromethyl-2,3,4,5-tetrahydro-pyrazin-2-yl)-4-fluoro-phenyl]-amide] | 89 |
| NC1=N[C@@](c2cc(NC(=O)c3ncc(=O)[nH]c3N)ccc2F)(C(F)F)CNC1 [Example 214, 3-Amino-5-oxo-4,5-dihydro-pyrazine-2-carboxylic acid [3-((R)-6-amino-2-difluoromethyl-2,3,4,5-tetrahydro-pyrazin-2-yl)-4-fluoro-phenyl]-amide] | 757 |
| [2H]C([2H])([2H])Oc1cnc(C(=O)Nc2ccc(F)c([C@]3(C(F)F)COCC(N)=N3)c2)c(N)n1 [Example 217] | 153 |
| NC1=N[C@@](c2cc(NC(=O)c3ccc4c(Cl)c[nH]c4n3)ccc2F)(C(F)F)COC1 [Example 219] | 117 |
| NC1=N[C@@](c2cc(NC(=O)c3ncc(C(F)F)nc3N)ccc2F)(C(F)F)COC1 [Example 220] | 116 |
| Cc1cc(C#N)cnc1C(=O)Nc1cc(F)c(F)c([C@]2(C(F)F)COCC(N)=N2)c1 [Example 228, 5-Cyano-3-methyl-pyridine-2-carboxylic acid [3-((R)-5-amino-3-difluoromethyl-3,6-dihydro-2H-[1,4]oxazin-3-yl)-4,5-difluoro-phenyl]-amide] | 61 |
| [2H]C([2H])([2H])Oc1cnc(C(=O)Nc2cc(F)c(F)c([C@]3(C(F)F)COCC(N)=N3)c2)c(Cl)c1 [Example 229, 3-Chloro-5-trideuteromethoxy-pyridine-2-carboxylic acid [3-((R)-5-amino-3-difluoromethyl-3,6-dihydro-2H-[1,4]oxazin-3-yl)-4,5-difluoro-phenyl]-amide] | 73 |
| [2H]c1nc(C(=O)Nc2cc(F)c(F)c([C@]3(C(F)F)COCC(N)=N3)c2)c(C([2H])([2H])[2H])c([2H])c1Cl [Example 230, 4,6-Dideutero-5-chloro-3-trideuteromethyl-pyridine-2-carboxylic acid [3-((R)-5-amino-3-difluoromethyl-3,6-dihydro-2H-[1,4]oxazin-3-yl)-4,5-difluoro-phenyl]-amide] | 8 |
| C[C@@]1(c2cc(NC(=O)c3ncc(C#N)cc3Cl)ccc2F)CO[C@@](C)(C(F)(F)F)C(N)=N1 [Example 231, 3-Chloro-5-cyano-pyridine-2-carboxylic acid [3-((3R,6R)-5-amino-3,6-dimethyl-6-trifluoromethyl-3,6-dihydro-2H-[1,4]oxazin-3-yl)-4-fluoro-phenyl]-amide hydrochloride] | 6 |
| COc1cnc(C(=O)Nc2ccc(F)c([C@]3(C)CO[C@@](C)(C(F)(F)F)C(N)=N3)c2)c(Cl)c1 [Example 232, 3-Chloro-5-methoxy-pyridine-2-carboxylic acid [3-((3R,6R)-5-amino-3,6-dimethyl-6-trifluoromethyl-3,6-dihydro-2H-[1,4]oxazin-3-yl)-4-fluoro-phenyl]-amide hydrochloride] | 7 |
| Cc1cc(Cl)cnc1C(=O)Nc1ccc(F)c([C@]2(C)CO[C@@](C)(C(F)(F)F)C(N)=N2)c1 [Example 234, 5-Chloro-3-methyl-pyridine-2-carboxylic acid [3-((3R,6R)-5-amino-3,6-dimethyl-6-trifluoromethyl-3,6-dihydro-2H-[1,4]oxazin-3-yl)-4-fluoro-phenyl]-amide hydrochloride] | 2 |
| C[C@@]1(c2cc(NC(=O)c3ncc(Cl)cc3F)ccc2F)CO[C@@](C)(C(F)(F)F)C(N)=N1 [Example 235, 5-Chloro-3-fluoro-pyridine-2-carboxylic acid [3-((3R,6R)-5-amino-3,6-dimethyl-6-trifluoromethyl-3,6-dihydro-2H-[1,4]oxazin-3-yl)-4-fluoro-phenyl]-amide hydrochloride] | 2 |
| Cl.[2H]C([2H])([2H])Oc1cnc(C(=O)Nc2ccc(F)c([C@]3(C)CO[C@@](C)(C(F)(F)F)C(N)=N3)c2)c(Cl)c1 [Example 236, 3-Chloro-5-trideutero-methoxy-pyridine-2-carboxylic acid [3-((3R,6R)-5-amino-3,6-dimethyl-6-trifluoromethyl-3,6-dihydro-2H-[1,4]oxazin-3-yl)-4-fluoro-phenyl]-amide hydrochloride] | 6 |
| Cc1nc(C(=O)Nc2ccc(F)c([C@]3(C)CO[C@@](C)(C(F)(F)F)C(N)=N3)c2)c(C)o1 [Example 237, 2,5-Dimethyl-oxazole-4-carboxylic acid [3-((3R,6R)-5-amino-3,6-dimethyl-6-trifluoromethyl-3,6-dihydro-2H-[1,4]oxazin-3-yl)-4-fluoro-phenyl]-amide hydrochloride] | 7 |
| Cc1cc(OC(F)F)cnc1C(=O)Nc1ccc(F)c([C@]2(C)CO[C@@](C)(C(F)(F)F)C(N)=N2)c1 [Example 238] | 12 |
| C#CCOc1cnc(C(=O)Nc2ccc(F)c([C@]3(C)CO[C@@](C)(C(F)(F)F)C(N)=N3)c2)c(N)n1 [Example 239] | 15 |
| Cc1cc(C(F)F)cnc1C(=O)Nc1ccc(F)c([C@]2(C)CO[C@@](C)(C(F)(F)F)C(N)=N2)c1 [Example 241, 5-Difluoromethyl-3-methyl-pyridine-2-carboxylic acid [3-((3R,6R)-5-amino-3,6-dimethyl-6-trifluoromethyl-3,6-dihydro-2H-[1,4]oxazin-3-yl)-4-fluoro-phenyl]-amide hydrochloride] | 8 |
| C[C@@]1(c2cc(NC(=O)c3ncc(C(F)F)nc3N)ccc2F)CO[C@@](C)(C(F)(F)F)C(N)=N1 [Example 242, 3-Amino-5-difluoromethyl-pyrazine-2-carboxylic acid [3-((3R,6R)-5-amino-3,6-dimethyl-6-trifluoromethyl-3,6-dihydro-2H-[1,4]oxazin-3-yl)-4-fluoro-phenyl]-amide] | 11 |
| C[C@@]1(c2cc(NC(=O)c3ncc(C(F)F)cc3N)ccc2F)CO[C@@](C)(C(F)(F)F)C(N)=N1 [Example 243, 3-Amino-5-difluoromethyl-pyridine-2-carboxylic acid [3-((3R,6R)-5-amino-3,6-dimethyl-6-trifluoromethyl-3,6-dihydro-2H-[1,4]oxazin-3-yl)-4-fluoro-phenyl]-amide] | 11 |
| COc1cc(C(F)F)c(C(=O)Nc2ccc(F)c([C@]3(C)CO[C@@](C)(C(F)(F)F)C(N)=N3)c2)nn1 [Example 244, 4-Difluoromethyl-6-methoxy-pyridazine-3-carboxylic acid [3-((3R,6R)-5-amino-3,6-dimethyl-6-trifluoromethyl-3,6-dihydro-2H-[1,4]oxazin-3-yl)-4-fluoro-phenyl]-amide hydrochloride] | 9 |
| [2H]C([2H])([2H])OCc1cc(C#N)cnc1C(=O)Nc1ccc(F)c([C@]2(C)CO[C@@](C)(C(F)(F)F)C(N)=N2)c1 [Example 245, 5-Cyano-3-trideuteromethoxymethyl-pyridine-2-carboxylic acid [3-((3R,6R)-5-amino-3,6-dimethyl-6-trifluoromethyl-3,6-dihydro-2H-[1,4]oxazin-3-yl)-4-fluoro-phenyl]-amide] | 13 |
| C[C@@]1(c2cc(NC(=O)c3ncc(C(F)F)cc3Cl)ccc2F)CO[C@@](C)(C(F)(F)F)C(N)=N1 [Example 246, 3-Chloro-5-difluormethyl-pyridine-2-carboxylic acid [3-((3R,6R)-5-amino-3,6-dimethyl-6-trifluoromethyl-3,6-dihydro-2H-[1,4]oxazin-3-yl)-4-fluoro-phenyl]-amide-amide] | 8 |

Further lines, results first:

| IC50 [nM] | SMILES |
| --- | --- |
| 11 | COCc1cc(Cl)cnc1C(=O)Nc1ccc(F)c([C@]2(C(F)F)COCC(N)=N2)c1 [Example 215, 5-Chloro-3-methoxymethyl-pyridine-2-carboxylic acid [3-((R)-5-amino-3-difluoromethyl-3,6-dihydro-2H-[1,4]oxazin-3-yl)-4-fluoro-phenyl]-amide] |
| 61 | N#Cc1cnc(C(=O)Nc2ccc(F)c([C@]3(C(F)F)COCC(N)=N3)c2)c(Cl)c1 [Example 216] |
| 125 | C#CCOc1cnc(C(=O)Nc2ccc(F)c([C@]3(C(F)F)COCC(N)=N3)c2)c(N)n1 [Example 218] |
| 65 | COc1cnc(C(=O)Nc2ccc(F)c([C@]3(C(F)F)COCC(N)=N3)c2)c(C)c1 [Example 221] |
| 52 | Cc1cc(C(F)F)cnc1C(=O)Nc1ccc(F)c([C@]2(C(F)F)COCC(N)=N2)c1 [Example 222] |
| 59 | [2H]C([2H])([2H])OCc1cc(F)cnc1C(=O)Nc1ccc(F)c([C@]2(C(F)F)COCC(N)=N2)c1 [Example 223] |
| 103 | [2H]C([2H])([2H])OCc1cc(OC([2H])([2H])[2H])cnc1C(=O)Nc1ccc(F)c([C@]2(C(F)F)COCC(N)=N2)c1 [Example 224] |
| 27 | N#Cc1cnc(C(=O)Nc2ccc(F)c([C@]3(C(F)F)COCC(N)=N3)c2)c(N)c1 [Example 225] |
| 90 | NC1=N[C@@](c2cc(NC(=O)c3ncc(C(F)F)cc3N)ccc2F)(C(F)F)COC1 [Example 226] |
| 64 | [2H]C([2H])([2H])Oc1cnc(C(=O)Nc2ccc(F)c([C@]3(C(F)F)COCC(N)=N3)c2)c(C)c1 [Example 227] |
